In patent US20240199647A1, “ANTI-VIRAL COMPOUNDS” (Aligos Therapeutics, Inc., priority 2022, published 2024):
Like-named read-outs stand apart in the source and are kept apart here.

Key:
[1] = molecular target: SARS-Cov-2 3CLpro (Severe acute respiratory syndrome coronavirus 2, UniProt P0DTD1); assay: biochemical; details: Table A, class symbols, read-out: SARS-Cov-2 (IC50)
[2] = system: human beta-coronavirus OC43; assay: OC43 Coronavirus Assay in HeLa cells (antiviral, cytopathic effect, cell-titer-glo); format: cell-based; details: Table B, OC43 coronavirus in HeLa cells, read-out: EC50
[3] = system: HeLa human cervical epithelial cells; assay: Cytotoxicity in HeLa cells without addition of OC43 virus (in parallel); details: Table B; HeLa cells without OC43 virus, class symbols
[4] = system: A549-dual_ACE2_TMPRSS2 cells; details: human
[5] = system: SARS-CoV-2 B.1.1.7 lineage; assay: microbe, parasite or virus in culture; format: cell-based; details: Table C, SARS-CoV-2 B.1.1.7 in A549-dual_ACE2_TMPRSS2 cells, read-out: A549-dual_ACE2_TMPRSS2 (EC50)
[6] = in vitro; details: human
[7] = Cytotoxicity in HeLa cells without addition of OC43 virus (in parallel); details: human, HeLa cells, without OC43 virus
[8] = Severe acute respiratory syndrome coronavirus 2, class symbols
[9] = Betacoronavirus 1, OC43, HeLa, class symbols

Row | Structure (SMILES) | IC50 [1] [nM] | EC50 ([2]; class symbols) [nM] | CC50 [3] [nM] | CC50 [4] [nM] | EC50 ([5]; class symbols) [nM] | EC50 ([2]; Betacoronavirus 1, OC43, HeLa, cells given as a bound) [nM] | CC50 [6] [nM] | EC50 [5, 8] [nM] | EC50 [2, 9] [nM] | CC50 at 6 days [7] [nM] | EC50 ([5]; Severe acute respiratory syndrome coronavirus 2, cells given as a bound) [nM]
1 | CC1NC(=O)[C@]2(C[C@@H](C#N)N(C(=O)[C@H](CC3CC3)N(C)C(=O)[C@H](CC3CC3)NC(=O)C(F)(F)F)C2)Oc2ccccc21 (single isomer, unassigned) [Compound 224, (S)—N—((S)-1-((2R,5R*,5'S)-5′-cyano-5-methyl-3-oxo-4,5-dihydro-3H-spiro[benzo[f][1,4]oxazepine-2,3′-pyrrolidin]-1′-yl)-3-cyclopropyl-1-oxopropan-2-yl)-3-cyclopropyl-N-methyl-2-(2,2,2-trifluoroacetamido)propanamide] | < 20 | < 100 | > 10000 | – | – | – | – | – | – | – | –
2 | C[C@H](NC(=O)C(F)(F)F)C(=O)N(C)[C@@H](CC1CC1)C(=O)N1C[C@]2(C[C@H]1C#N)C(=O)NCC2Oc1ccccc1 (stereo partly drawn) [Compound 94] | 20 to 200 | – | > 10000 | > 1000 | 100 to 1000 | > 10000 | – | – | – | – | –
3 | CN(C(=O)[C@H](CC(C)(C)C)NC(=O)C(F)(F)F)[C@@H](CC1CC1)C(=O)N1C[C@@]2(C[C@H]1C#N)Oc1cccnc1NC2=O [Compound 233] | < 20 | 100 to 1000 | > 10000 | > 1000 | < 100 | – | – | – | – | – | –
4 | CN(C(=O)[C@H](CC1CC1)NC(=O)C(F)(F)F)[C@@H](CC(C)(C)C)C(=O)N1C[C@@]2(C[C@H]1C#N)Oc1ccccc1CNC2=O [Compound 164] | < 20 | – | – | – | – | – | > 1000 | < 100 | < 100 | > 10000 | –
5 | CN(C(=O)[C@H](CC1CC1)NC(=O)C(F)(F)F)[C@@H](CC1CC1)C(=O)N1C[C@@]2(C[C@H]1C#N)Oc1cccc(F)c1NC2=O [Compound 56] | < 20 | – | – | – | – | – | > 1000 | < 100 | < 100 | > 10000 | –
6 | CC(C)C[C@@H](C(=O)N1C[C@@]2(C[C@H]1C#N)Oc1cc(F)cc(F)c1NC2=O)N(C)C(=O)[C@H](CC1CC1)NC(=O)C(F)(F)F [Example 36, (S)—N—((S)-1-((2R,5'S)-5′-cyano-5,7-difluoro-3-oxo-3,4-dihydrospiro[benzo[b][1,4]oxazine-2,3′-pyrrolidin]-1′-yl)-4-methyl-1-oxopentan-2-yl)-3-cyclopropyl-N-methyl-2-(2,2,2-trifluoroacetamido)propanamide] | < 20 | – | – | – | – | – | > 1000 | 100 to 1000 | < 100 | > 10000 | –
7 | C[C@H](NC(=O)C(F)(F)Cl)C(=O)N(C)[C@@H](CC1CC1)C(=O)N1C[C@@]2(CC1C#N)Oc1cccnc1NC2=O (stereo partly drawn) [Compound 174] | < 20 | – | – | – | – | – | > 1000 | < 100 | < 100 | > 10000 | –
8 | C[C@H](NC(=O)C(F)(F)F)C(=O)N(C)[C@@H](Cc1ccc(F)cc1)C(=O)N1C[C@@]2(C[C@H]1C#N)Oc1cccnc1NC2=O [Compound 181] | < 20 | – | – | – | – | – | > 1000 | 100 to 1000 | 1000 to 10000 | > 10000 | –
9 | COC(=O)N[C@@H](CC1CC1)C(=O)N(C)[C@@H](CC1CC1)C(=O)N1C[C@@]2(C[C@H]1C#N)Oc1ncccc1NC2=O [Compound 214] | < 20 | – | – | – | – | – | > 1000 | 100 to 1000 | < 100 | > 10000 | –
10 | COC[C@H](NC(=O)C(F)(F)F)C(=O)N(C)[C@@H](CC(C)C)C(=O)N1C[C@@]2(C[C@H]1C#N)Oc1cc(F)cc(F)c1NC2=O [Compound 72] | < 20 | – | – | – | – | – | > 1000 | 100 to 1000 | 100 to 1000 | > 10000 | –
11 | CN(C(=O)[C@H](COC(C)(C)C)NC(=O)C(F)(F)F)[C@@H](CC1CC1)C(=O)N1C[C@@]2(C[C@H]1C#N)Oc1cccnc1NC2=O [Compound 190] | < 20 | – | – | – | – | – | > 1000 | 100 to 1000 | < 100 | > 10000 | –
12 | CN(C(=O)[C@H](CC1CC1)NC(=O)C(F)(F)F)[C@@H](CC1CC1)C(=O)N1C[C@@]2(C[C@H]1C#N)Oc1ccccc1NC2=O [Compound 182] | < 20 | – | – | – | – | – | > 1000 | < 100 | < 100 | > 10000 | –
13 | COC(=O)N[C@@H](C)C(=O)N(C)[C@@H](CC1CC1)C(=O)N1C[C@@]2(C[C@H]1C#N)Oc1cccnc1NC2=O [Compound 213] | < 20 | – | – | – | – | – | > 1000 | 100 to 1000 | < 100 | > 10000 | –
14 | CN(C(=O)[C@H](CC1CC1)NC(=O)C(F)(F)F)[C@@H](CC1CC1)C(=O)N1C[C@]2(C[C@H]1C#N)C(=O)Nc1ccccc1S2(=O)=O [Compound 82] | 20 to 200 | – | – | – | – | – | > 1000 | – | 100 to 1000 | > 10000 | > 1000
15 | CC(C)C[C@@H](C(=O)N1C[C@]2(CCC3(CC3)NC2=O)C[C@H]1C#N)N(C)C(=O)[C@H](C)NC(=O)C(F)(F)F [Compound 20] | 20 to 200 | – | – | – | – | – | > 1000 | 100 to 1000 | 1000 to 10000 | > 10000 | –
16 | CN(C(=O)[C@H](CC1CC1)NC(=O)C(F)(F)F)[C@@H](CC1CC1)C(=O)N1C[C@@]2(C[C@H]1C#N)Oc1ccccc1C(C)(C)NC2=O [Compound 228] | 20 to 200 | – | – | – | – | – | > 1000 | 100 to 1000 | 100 to 1000 | > 10000 | –
17 | CN(C(=O)[C@H](CC1CC1)NC(=O)C(F)(F)F)[C@@H](CC1CC1)C(=O)N1C[C@@]2(C[C@H]1C#N)Oc1cc(C#N)cc(F)c1NC2=O [Example 34, (S)-3-cyclopropyl-N—((S)-3-cyclopropyl-1-((2R,5'S)-5′,7-dicyano-5-fluoro-3-oxo-3,4-dihydrospiro[benzo[b][1,4]oxazine-2,3′-pyrrolidin]-1′-yl)-1-oxopropan-2-yl)-N-methyl-2-(2,2,2-trifluoroacetamido)propanamide] | < 20 | – | – | – | – | – | > 1000 | 100 to 1000 | 100 to 1000 | > 10000 | –
18 | CN(C(=O)[C@H](CC1CC1)NC(=O)C(F)(F)F)[C@@H](CC1CC1)C(=O)N1C[C@@]2(C[C@H]1C#N)Oc1cccnc1NC2=O [Compound 66] | < 20 | – | – | – | – | – | > 1000 | < 100 | < 100 | > 10000 | –
19 | CN(C(=O)[C@H](CC1CC1)NC(=O)C(F)(F)F)[C@@H](CC1CC1)C(=O)N1C[C@@]2(C[C@H]1C#N)Oc1cccc(F)c1CNC2=O [Compound 141] | < 20 | – | – | – | – | – | > 1000 | 100 to 1000 | < 100 | > 10000 | –
20 | CN(C(=O)[C@@H](COC(C)(C)C)NC(=O)C(F)(F)F)[C@@H](CC1CC1)C(=O)N1C[C@@]2(C[C@H]1C#N)Oc1cccnc1NC2=O [Compound 156] | < 20 | – | – | – | – | – | > 1000 | 100 to 1000 | < 100 | > 10000 | –
21 | CC1NC(=O)[C@]2(C[C@@H](C#N)N(C(=O)[C@H](CC3CC3)N(C)C(=O)[C@H](CC3CC3)NC(=O)C(F)(F)F)C2)Oc2ccccc21 (stereo partly drawn) [Compound 222, (2S)—N-((2S)-1-((2R,5'S)-5′-cyano-5-methyl-3-oxo-4,5-dihydro-3H-spiro[benzo[f][1,4]oxazepine-2,3′-pyrrolidin]-1′-yl)-3-cyclopropyl-1-oxopropan-2-yl)-3-cyclopropyl-N-methyl-2-(2,2,2-trifluoroacetamido)propanamide] | < 20 | – | – | – | – | – | > 1000 | < 100 | < 100 | > 10000 | –
22 | C[C@H](NC(=O)C(F)(F)F)C(=O)N(C)[C@@H](CC1CCC1)C(=O)N1C[C@@]2(C[C@H]1C#N)Oc1cccnc1NC2=O [Compound 165] | < 20 | – | – | – | – | – | > 1000 | < 100 | < 100 | > 10000 | –
23 | CN(C(=O)[C@H](CC1CC1)N1CCOC1=O)[C@@H](CC1CC1)C(=O)N1C[C@@]2(C[C@H]1C#N)Oc1cc(F)cc(F)c1NC2=O [Compound 101] | 20 to 200 | – | – | – | – | – | > 1000 | 100 to 1000 | < 100 | > 10000 | –
24 | CC(C)C[C@@H](C(=O)N1C[C@]2(CC(c3ccccc3)=NNC2=O)C[C@H]1C#N)N(C)C(=O)c1cc2c(F)cc(F)c(F)c2[nH]1 [Example 30, N—((S)-1-((3S,5R)-3-cyano-6-oxo-9-phenyl-2,7,8-triazaspiro[4.5]dec-8-en-2-yl)-4-methyl-1-oxopentan-2-yl)-4,6,7-trifluoro-N-methyl-1H-indole-2-carboxamide] | < 20 | – | – | – | – | – | > 1000 | 100 to 1000 | 100 to 1000 | > 10000 | –
25 | CN(C(=O)[C@@H](NC(=O)C(F)(F)F)C1CC1)[C@@H](CC1CC1)C(=O)N1C[C@@]2(C[C@H]1C#N)Oc1cccnc1NC2=O [Compound 179] | < 20 | – | – | – | – | – | > 1000 | 100 to 1000 | < 100 | > 10000 | –
